Measurements published in PMC5352783, “Characterization and cytotoxic effect of aqua-(2,2′,2′′-nitrilotriacetato)-oxo-vanadium salts on human osteosarcoma cells” (Biometals, 2017).
Like-named read-outs stand apart in the source and are kept apart here. Marks after values point to notes of the source that are not given here.

Tests used:
[1] = tested on: tumoral cell lines of human origin; design: method as in Evangelou [2002]; D’Cruz and Uckun [2002]; Dong et al. [2000]; settings: leukemia, breast, ovarian, prostate and testicular cancer cells; ref Evangelou [2002]; D’Cruz and Uckun [2002]; Dong et al. [2000]; cited from earlier work
[2] = Potentiometric titration, equilibrium constants of complex species in aqueous solution; assay type: physicochemical; settings: for Logarithm of equilibrium constant, reaction 1: A + H3O^+ ⇋ AH^+ + H2O (AH^+ = bpyH^+ or phenH^+) / Logarithm of equilibrium constant, reaction 2 ([drawing 1]) / Logarithm of equilibrium constant, reaction 3 ([drawing 2]): 298.15 K, ionic strength 0.1 M NaClO4, standard deviation in parentheses
Procedure: Potentiometric titrations were performed at 298.15 K by using Cerko Lab System microtitration unit fitted with 5‐mL Hamilton’s syringe and pH‐combined electrode (Schott‐BlueLine 16 pH type) All details for the measuring devices and the experimental setup were described in (Wyrzykowski et al. [2014]). The ionic strength was maintained at 0.1 M using NaClO4. The 6 mM [bpyH][VO(nta)(H2O)]H2O and [phenH][VO(nta)(H2O)](H2O)0.5 solutions (Vo = 5.0 mL) were potentiometrically titrated with a standardized NaOH solution (0.098 M). The concentration distribution of various complex species existing in the solution as a function of pH was obtained using the HySS program (Alderighi et al. [1999]).
The potentiometric titration method has been applied for studying the stability of [bpyH][VO(nta)(H2O)]H2O and [phenH][VO(nta)(H2O)](H2O)0.5 in aqueous solutions. The logarithm of the overall equilibrium constants of the complex species (Table 5) were refined by least-squares calculations using the Hyperquad2008 (ver. 5.2.19) computer program (Gans et al. [1996]).

[3] = tested on: DNA; settings: comparison of the three VO-oda compounds; cited from earlier work
[4] = tested on: UMR106 derived from rat osteosarcoma cells; settings: cited from earlier work; for Cytotoxicity, normal versus tumoral osteoblasts: MC3T3E1 (normal) versus UMR106 (tumoral); for Cellular proliferation: UMR106
[5] = tested on: MC3T3E1 derived from mouse calvaria; settings: cited from earlier work
[6] = tested on: human osteosarcoma cells; design: method as in Yodoshi et al. [2007]; settings: rank among the three VO-oda compounds; ref Yodoshi et al. [2007]; cited from earlier work
[7] = tested on: streptozotocin-induced (STZ) diabetic rats; design: method as in Thompson and Orvig [2006]; settings: oral, ref Thompson and Orvig [2006]; cited from earlier work
[8] = at 25 °C; cited from earlier work
[9] = tested on: animal and human cancer cell lines; design: method as in earlier work; settings: ref Havelek et al. [2012]; Vinklarek et al. [2004]; Gleeson et al. [2009]; Palackova et al. [2007]; cited from earlier work
[10] = tested on: human osteosarcoma cell (HOS); experiment: BrdU test, cell proliferation; assay type: cell-based; settings: 48 h
Procedure: (§1) The cell lines: two human osteosarcoma cell lines (MG-63 and HOS) and untransformed hFOB were used to assess an anti-proliferative and cytotoxic effect, respectively. hFOB cells were grown in a mixture of Dulbecco’s Modified Eagle’s Medium and Ham F12 medium (1:1 ratio), MG-63 and HOS in Eagle’s Minimum Essential Medium also containing sodium pyruvate 110 mg/L and supplemented with 10% fetal bovine serum, 6 μg/mL penicillin-G, and 10 μg/mL streptomycin.
(§2) Cultured cancer cells with 80–90% confluence were used for plating. The adherent cells were trypsinized to detach cells. 100 µL of cells were seeded into each well of the 96-wells plates (1–5 × 10^4 cells per well). The plate was maintained at 37 °C in a incubator for 48 h until 80–90% confluence. Then, old media were discarded and the cells were treated with tested compounds and cisplatin as positive control. The concentrations of investigated compounds used in experiments were carefully selected according to the results obtained from a preliminary concentration–response study (data not shown). […] Fresh solutions of cisplatin were made up for each experiment owing to its instability in water. […]
Fig. 9 The inhibition of the human osteosarcoma cell (HOS) proliferation after an incubation with investigated compounds assessed with the BrdU-test. […] Data are expressed as mean values ± SD from three experiments. ***p < 0.001 versus control

[11] = tested on: human osteosarcoma cell (MG-63); experiment: BrdU test, cell proliferation; assay type: cell-based; settings: 48 h
Procedure: as §1, §2
Fig. 8 The inhibition of the human osteosarcoma cell (MG-63) proliferation after an incubation with investigated compounds assessed with the BrdU-test. […] Data are expressed as mean values ± SD from three experiments. ***p < 0.001 versus control

Compound: Cc1ccnc2c1ccc1c(C)ccnc12.Cc1ccnc2c1ccc1c(C)ccnc12.O=S(=O)([O-])[O-].[O]=[V+2] [Metvan]
- Apoptosis [1]: induces apoptosis

Compound: 2,2′-bipyridinium aqua-(2,2′,2′′-nitrilotriacetato)-oxo-vanadium monohydrate [[bpyH][VO(nta)(H2O)]H2O]
- Logarithm of equilibrium constant, reaction 1: A + H3O^+ ⇋ AH^+ + H2O (AH^+ = bpyH^+ or phenH^+) [2]: 4.47 (0.03)^a
- Logarithm of equilibrium constant, reaction 2 ([drawing 1]) [2]: 7.80 (0.06)
- Logarithm of equilibrium constant, reaction 3 ([drawing 2]) [2]: −19.94 (0.06)

Compound: O=C([O-])COCC(=O)[O-].[O]=[V+2].c1cnc2c(c1)ccc1cccnc12 [VO(oda)(phen)]
- DNA cleavage (nuclease activity) [3]: stronger effect
- Cytotoxicity, normal versus tumoral osteoblasts ([4]; ref León et al. [2012b]): stronger in the normal than in the tumoral osteoblasts
- Cellular proliferation ([4]; ref León et al. [2012b]): inhibition of the cellular proliferation
- Cellular proliferation ([5]; ref León et al. [2012b]): inhibition of the cellular proliferation
- Antitumor action [6]: most potent antitumor action

Compound: CCc1occc(=O)c1[O][V](=[O])[O]c1c(CC)occc1=O [BEOV, VO(Etmaltolato)2]
- Effect on plasma glucose levels [7]: lower plasma glucose levels

Compound: O=C([O-])COCC(=O)[O-].[O]=[V+2] [VO(oda)]
- DNA cleavage (nuclease activity) [3]: similar
- Cytotoxicity, normal versus tumoral osteoblasts ([4]; ref Rivadeneira et al. [2010]): stronger in the normal (MC3T3E1) than in the tumoral (UMR106) osteoblasts
- Cellular proliferation ([4]; ref Rivadeneira et al. [2010]): inhibition of a cellular proliferation
- Cellular proliferation ([5]; ref Rivadeneira et al. [2010]): inhibition of a cellular proliferation

Compound: Cc1occc(=O)c1[O-].Cc1occc(=O)c1[O-].[O]=[V+2] [BMOV, VO(maltolato)2]
- Effect on plasma glucose levels [7]: lower plasma glucose levels

Compound: cis-Pt(NH3)2Cl2 [cisplatin]
- water solubility [8]: 0.253 g/100 mL

Compound: O=C([O-])COCC(=O)[O-].[O]=[V+2].c1ccc(-c2ccccn2)nc1 [VO(oda)(bpy)]
- DNA cleavage (nuclease activity) [3]: similar
- Cytotoxicity, normal versus tumoral osteoblasts ([4]; ref León et al. [2012b]): statistically stronger in the tumoral cells

Compound: [Cl-].[Cl-].[V+4].c1cc[cH-]c1.c1cc[cH-]c1 [[VCp2Cl2], bis(cyclopentadienyl) dichloro-V(IV)]
- In vitro activity against cancer cell lines [9]: high in vitro activity

Compound: O.O=C([O-])CN(CC(=O)[O-])CC(=O)[O-].[O]=[V+2].c1cnc2c(c1)ccc1ccc[nH+]c12 [[phenH][VO(nta)(H2O)](H2O)0.5]
- Logarithm of equilibrium constant, reaction 1: A + H3O^+ ⇋ AH^+ + H2O (AH^+ = bpyH^+ or phenH^+) [2]: 5.00 (0.04)^a
- Logarithm of equilibrium constant, reaction 2 ([drawing 1]) [2]: 7.93 (0.07)
- Logarithm of equilibrium constant, reaction 3 ([drawing 2]) [2]: −19.91 (0.08)
- Anti-proliferative activity (BrdU incorporation) ([10]; 1-100 μM): most effective anti-proliferative activity
- Anti-proliferative activity compared with cis-Pt(NH3)2Cl2 ([10]; BrdU test): significantly higher
- Anti-proliferative activity (BrdU incorporation) ([11]; 1-100 μM): most effective anti-proliferative activity
- Anti-proliferative activity compared with cis-Pt(NH3)2Cl2 ([11]; BrdU test): significantly higher

Compound: O.O=C([O-])CN(CC(=O)[O-])CC(=O)[O-].[O]=[V+2] [[VO(nta)(H2O)]^−]
- pH up to which the aqua complex is stable ([2]; aqueous solution, species distribution from the equilibrium constants): ≤ 5
